The record followed here is patent publication US12599676B2, “Cytotoxic imidazo[1,2-A]pyridine compounds and their use in therapy” (MyricX Pharma Limited, priority 2022, dated 2026).

The subject of series [1] is SU-DHL-10 cell line (human B cell lymphoma). Description: Cell cytotoxicity in SU-DHL-10 cell line (CellTiter-Glo). The note with it: Homo sapiens, SU-DHL10, 72 h, 72 h treatment, CTG. It counts as cell-based. Summed up:
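Cells seeded at 5000-8000/well, dosed next day with 9 concentrations in triplicate (DMSO 0.1% final) and incubated 72 h at 37° C, 5% CO2. Viability by CellTiter-Glo luminescence normalised to vehicle (100%) and medium blank; IC50 from sigmoidal nonlinear regression.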

In series [2] the test system is LYXFDLBC2835 (patient-derived xenograft lymphoma). Description: Cell cytotoxicity CellTiter-Glo, LYXFDLBC2835. In kind it is cell-based. The protocol:
(§1) Cells were seeded in 96-well microplates and treated with compounds or cisplatin (as a positive control) at 9 increasing concentrations in technical triplicate. […] On day 1, 90 μL of various cell suspensions with the number of cells ranging from 5000-8000 cells/well were seeded into wells of a 96-well plate (Corning). The number of cells to be seeded was previously determined. • 2. All 96-wells plates with cells were placed in an incubator overnight at 37° C. with 5% CO2. • 3. On day 2, cells were observed under a microscope ensuring the cells treated with vehicle control were in good condition. • 4. A dilution series of the test compounds and cisplatin were prepared at 10× the final concentrations required. 10 μL/well of 10× compound solution was added to the corresponding plates. The final volume was 100 μL/well for all the plates. Final DMSO concentration was 0.1%. • 5. On day 5 (after 72 hours of incubation), 50 μL of CTG reagent was added to each well. • 6. Contents were mixed for 5 minutes on an orbital shaker to facilitate cell lysis. • 7. The plate was allowed to incubate at room temperature for 10 minutes to stabilize luminescent signals.
(§2) The effects of Comparator Compound 1 and certain Example compounds on the viability of various cell lines (LYXFDLBC2835, LYXFDLBC4009 and LYXFDLBC411 (patient-derived xenograft lymphoma), HT1080 (human fibrosarcoma), CA46 (human B cell lymphoma), RKO (human colon carcinoma), NCI-H1703 (human lung squamous cell carcinoma), MX-1 (human breast carcinoma), DU4475 (human breast carcinoma), LU2511 (human lung large cell undifferentiated carcinoma), LU0884 (human lung squamous cell carcinoma)), Panc-1 (human pancreatic carcinoma), MCF-7 (human breast cancer), SW480 (human colon adenocarcinoma) and HCC1806 (human breast ductal carcinoma) were performed using the standard CellTiter-Glo assay (CTG, Promega) as described in Biological Example 2. Compounds which show efficacy in these assays are expected to be useful as agents for treating or preventing hyperproliferative disorders such as cancer.
For orientation: ATP-based viability assays read luminescence as a measure of living cells.

The next series deals with Caco-2 cells. Description: Caco-2 cell permeability assay. It counts as in vitro ADME. The settings on record: apical to basal Papp, 2 μM, pH 7.4, 2.5 h. Summed up:
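Caco-2 monolayers grown 10 days were dosed at 2 μM (1% DMSO) on the donor side in HBSS/10 mM HEPES pH 7.4, for both AB and BA directions, then incubated 2.5 h at 37 °C without shaking. Donor and acceptor samples were quantified by LC-MS/MS to give Papp. Wells that failed a Lucifer Yellow integrity check (>1% passage) were excluded.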
On the technique in general: Caco-2 cells form a polarised layer with tight junctions and transporters.

The test system of series [3] is LU2511 (human lung large cell undifferentiated carcinoma). Description: Cell cytotoxicity CellTiter-Glo, LU2511. It counts as cell-based. As to the method: as §1, with “signals. […]” for “signals.”
The test system of series [4] is LYXFDLBC4113 (patient-derived xenograft lymphoma). Description: Cell cytotoxicity CellTiter-Glo, LYXFDLBC4113. In kind it is cell-based. As to the method:
as §1, §2

The test system of series [5] is LYXFDLBC4009 (patient-derived xenograft lymphoma). Description: Cell cytotoxicity CellTiter-Glo, LYXFDLBC4009. In kind it is cell-based. The protocol: as §1, §2
Series [6] concerns LU0884 (human lung squamous cell carcinoma). Description: Cell cytotoxicity CellTiter-Glo, LU0884. In kind it is cell-based. As to the method:
as §1, with “signals. […]” for “signals.”

pIC50: −log10 of the molar value.

As for `Cc1c(CCOc2cc(Cl)ccc2-c2ccc3ncc(CCN)n3c2)c(C(=O)N(C)C)nn1C` [Comparator Compound 1, 4-(2-{2-[3-(2-aminoethyl)imidazo[1,2-a]pyridin-6-yl]-5-chlorophenoxy}ethyl)-N,N,1,5-tetramethyl-1H-pyrazole-3-carboxamide, reference compound], the negative-log IC50 (pIC50) in series [1] was 8.30; in series [2] it was 6.89; in series [3] it was 8.05; in series [4] it was 6.05; in series [5], 5.81; in series [6] it was 7.36. The “Caco-2 A-B” value with Caco-2 cells is 0.0 ×10⁻⁶ cm/s.

Take `CNCc1cnc2ccc(-c3ccc(F)c(F)c3OCCc3c(C(O)C(C)(C)C)nn(C)c3C)cn12` (single isomer, unassigned) [Example 12, 1-(4-(2-(2,3-difluoro-6-(3-((methylamino)methyl)imidazo[1,2-a]pyridin-6-yl)phenoxy)ethyl)-1,5-dimethyl-1H-pyrazol-3-yl)-2,2-dimethylpropan-1-ol]: the pIC50 was 9.22 in series [1]; 8.00 in series [2]; 10.15 in series [3]; 8.52 in series [4]; 8.52 in series [5]; 8.52 in series [6]. For the same compound, in the series with Caco-2 cells, the “Caco-2 A-B” value came to 0.95 ×10⁻⁶ cm/s.

A word on the pIC50: it is −log10 of the IC50, conventionally taken in molar units. Higher therefore signals a small IC50.
